Assay results as given in publication PMC5515969, “Effects of 31 FDA approved small-molecule kinase inhibitors on isolated rat liver mitochondria” (Archives of Toxicology, 2016).

How the values were obtained:
[1] = system: isolated rat liver mitochondria; experiment: Mitochondrial ROS production (CM-H2DCFDA); conditions: DMSO treated samples set as 1
[2] = ref product labeling, cited from earlier work
[3] = system: isolated rat liver mitochondria; experiment: Mitochondrial oxygen consumption (glutamate/malate or succinate driven, state 4 and state 3); format: biochemical; conditions: DMSO treated samples set as 1; on State 3 respiration driven by succinate at 10XCmax: key: 0 indicates that the drug had no effects (negative); on State 3 respiration driven by succinate at 1XCmax: key: 0 indicates that the drug had no effects (negative)
Outline: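 Rat liver mitochondria (1 mg/ml protein) exposed 5 min to kinase inhibitors in 0.1% DMSO, then O2 consumption measured by Clark-type electrode with glutamate/malate or succinate (state 4), ADP added after 3 min (state 3). Rates normalized to 0.1% DMSO controls set to 1.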

RCC IV = RCC IV activity in submitochondrial particles; format: biochemical, rat; design: key to RCC IV at 50XCmax / RCC IV at 100XCmax: activity relative to DMSO-treated controls (control set as 1 = 100%); conditions: 50XCmax; DMSO treated samples set as 1; in %
Outline: (§1)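 First, submitochondrial particles (1 mg/ml) are incubated with inhibitor for 15 min. Next, complex activities are followed spectrophotometrically, with RCC I taken as the difference between buffers lacking and containing rotenone. Finally, activities are expressed relative to DMSO controls set at 1.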

[4] = system: isolated rat liver mitochondria; experiment: Mitochondrial inner membrane potential (MMP), Rhodamine 123; format: biochemical; conditions: difference in signal between KI and DMSO treated samples at the end of experiments
Description: Fig. 3 KI effects on mitochondrial inner membrane potential (MMP). […] In a, c, data are means and standard derivations from three separate experiments. *p < 0.05 as compared to DMSO-treated samples at the end of experiments. In b, data are means of two independent experiments

RCC II = molecular target: T1, RCC II (Rattus norvegicus, UniProt P21913+Q641Z9+Q6PCT8+Q920L2); experiment: RCC II activity in submitochondrial particles; format: biochemical; design: key: activity relative to DMSO-treated controls (control set as 1 = 100%); conditions: DMSO treated samples set as 1
T1 construct: Submitochondrial particles were prepared by subjecting the intact mitochondria to three successive freeze–thaw cycles; from tissue; host or cells: rat liver mitochondria, used as submitochondrial particles
T1 sequence (Q920L2 35-656): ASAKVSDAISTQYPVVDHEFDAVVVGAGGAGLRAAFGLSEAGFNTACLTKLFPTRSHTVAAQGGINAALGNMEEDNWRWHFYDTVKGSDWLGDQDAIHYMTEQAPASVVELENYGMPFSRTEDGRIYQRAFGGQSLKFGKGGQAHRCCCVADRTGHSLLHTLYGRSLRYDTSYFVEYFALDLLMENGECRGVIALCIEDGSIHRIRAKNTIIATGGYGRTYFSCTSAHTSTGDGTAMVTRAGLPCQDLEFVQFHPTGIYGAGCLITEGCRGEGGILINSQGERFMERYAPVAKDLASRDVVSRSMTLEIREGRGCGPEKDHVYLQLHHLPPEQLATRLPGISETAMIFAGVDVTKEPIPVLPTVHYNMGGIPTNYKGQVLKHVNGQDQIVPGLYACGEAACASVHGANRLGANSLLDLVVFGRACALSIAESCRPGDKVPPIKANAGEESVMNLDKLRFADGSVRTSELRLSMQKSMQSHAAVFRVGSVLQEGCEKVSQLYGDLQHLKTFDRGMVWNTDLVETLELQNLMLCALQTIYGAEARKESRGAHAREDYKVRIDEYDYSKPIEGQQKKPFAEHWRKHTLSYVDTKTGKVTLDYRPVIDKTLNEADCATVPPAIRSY
T1 sequence (P21913 31-282): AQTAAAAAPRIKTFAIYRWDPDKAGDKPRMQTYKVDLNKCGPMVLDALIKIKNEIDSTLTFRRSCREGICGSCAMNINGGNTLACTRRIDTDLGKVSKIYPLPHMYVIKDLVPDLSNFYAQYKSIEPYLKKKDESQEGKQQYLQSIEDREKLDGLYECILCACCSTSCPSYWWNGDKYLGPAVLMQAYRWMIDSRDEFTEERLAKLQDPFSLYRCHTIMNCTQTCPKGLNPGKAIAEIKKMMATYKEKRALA
T1 sequence (Q641Z9 1-169): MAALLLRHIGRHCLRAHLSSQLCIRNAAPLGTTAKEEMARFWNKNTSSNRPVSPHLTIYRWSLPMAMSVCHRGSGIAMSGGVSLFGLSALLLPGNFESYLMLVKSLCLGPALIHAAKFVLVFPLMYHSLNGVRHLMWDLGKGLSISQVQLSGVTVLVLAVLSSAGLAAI
T1 sequence (Q6PCT8 57-159): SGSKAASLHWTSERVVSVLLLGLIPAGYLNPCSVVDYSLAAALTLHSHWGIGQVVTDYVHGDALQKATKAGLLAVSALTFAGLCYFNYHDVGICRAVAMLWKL
Outline: as §1

RCC III = RCC III activity in submitochondrial particles; format: biochemical, rat; design: key to RCC III at 100XCmax: activity relative to DMSO-treated controls (control set as 1 = 100%); conditions: 100XCmax
Outline: as §1

[5] = system: isolated rat liver mitochondria; experiment: Mitochondrial swelling (absorbance at 535 nm); format: biochemical; conditions: difference in signal between KI and DMSO treated samples at the end of experiments; on Swelling 5XCmax: key: 0 indicates that the drug had no effects (negative)
RCC V = RCC V activity in submitochondrial particles; format: biochemical, rat; conditions: DMSO treated samples set as 1; on RCC V at 5XCmax: key: 0 indicates that the drug had no effects (negative)
Outline: as §1

RCC I = RCC I activity in submitochondrial particles; format: biochemical, rat; design: key to RCC I at 10XCmax / RCC I at 100XCmax / RCC I at 50XCmax / RCC I at 30XCmax / RCC I at 20XCmax: activity relative to DMSO-treated controls (control set as 1 = 100%); conditions: 10XCmax; DMSO treated samples set as 1
Outline: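 Activity relative to DMSO (set as 1) after 15-min exposure of submitochondrial particles (1 mg/ml) to compound. RCC I is defined as rotenone-sensitive activity and RCC II is followed at 600 nm over 6 min.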

CN(C)C/C=C/C(=O)Nc1cc2c(Nc3ccc(F)c(Cl)c3)ncnc2cc1O[C@H]1CCOC1 [afatinib dimaleate]
ROS measured by CM-H2DCFDA at 1XCmax ([1]; 1XCmax): 0
ROS measured by CM-H2DCFDA at 2.5XCmax ([1]; 2.5XCmax): 0
ROS measured by CM-H2DCFDA at 5XCmax ([1]; 5XCmax): 0
ROS measured by CM-H2DCFDA at 10XCmax ([1]; 10XCmax): 0
ROS measured by CM-H2DCFDA at 20XCmax ([1]; 20XCmax): 0
ROS measured by CM-H2DCFDA at 30XCmax ([1]; 30XCmax): 0
ROS measured by CM-H2DCFDA at 50XCmax ([1]; 50XCmax): 0
ROS measured by CM-H2DCFDA at 100XCmax ([1]; 100XCmax): 0
DILI potential (based on labeling) ([2]; 1 DILI positive, 0 negative according to labeling): 1
Labeling for DILI ([2]; BBW: black box warning, W&P: Warnings and Precautions): W&P: ALT↑
State 3 respiration driven by glutamate/malate at 1XCmax ([3]; 1XCmax): 0
State 3 respiration driven by succinate at 1XCmax ([3]; 1XCmax): 0
State 4 respiration driven by glutamate/malate at 1XCmax ([3]; 1XCmax): 0
State 4 respiration driven by succinate at 1XCmax ([3]; 1XCmax): 0
State 3 respiration driven by glutamate/malate at 2.5XCmax ([3]; 2.5XCmax): 0
State 3 respiration driven by succinate at 2.5XCmax ([3]; 2.5XCmax): 0
State 4 respiration driven by glutamate/malate at 2.5XCmax ([3]; 2.5XCmax): 0
State 4 respiration driven by succinate at 2.5XCmax ([3]; 2.5XCmax): 0
State 3 respiration driven by glutamate/malate at 5XCmax ([3]; 5XCmax): 0
State 3 respiration driven by succinate at 5XCmax ([3]; 5XCmax): 0
State 4 respiration driven by glutamate/malate at 5XCmax ([3]; 5XCmax): 0
State 4 respiration driven by succinate at 5XCmax ([3]; 5XCmax): 0
State 3 respiration driven by glutamate/malate at 10XCmax ([3]; 10XCmax): 0
State 3 respiration driven by succinate at 10XCmax ([3]; 10XCmax): 0
State 4 respiration driven by glutamate/malate at 10XCmax ([3]; 10XCmax): 0
State 4 respiration driven by succinate at 10XCmax ([3]; 10XCmax): 0
State 3 respiration driven by glutamate/malate at 20XCmax ([3]; 20XCmax): 0
State 3 respiration driven by succinate at 20XCmax ([3]; 20XCmax): 0
State 4 respiration driven by glutamate/malate at 20XCmax ([3]; 20XCmax): 0
State 4 respiration driven by succinate at 20XCmax ([3]; 20XCmax): 0
State 3 respiration driven by glutamate/malate at 30XCmax ([3]; 30XCmax): 0
State 3 respiration driven by succinate at 30XCmax ([3]; 30XCmax): 0
State 4 respiration driven by glutamate/malate at 30XCmax ([3]; 30XCmax): 0
State 4 respiration driven by succinate at 30XCmax ([3]; 30XCmax): 0
State 3 respiration driven by glutamate/malate at 50XCmax ([3]; 50XCmax): 0
State 3 respiration driven by succinate at 50XCmax ([3]; 50XCmax): 0
State 4 respiration driven by glutamate/malate at 50XCmax ([3]; 50XCmax): 0
State 4 respiration driven by succinate at 50XCmax ([3]; 50XCmax): 0
State 3 respiration driven by glutamate/malate at 100XCmax ([3]; 100XCmax): 0
State 3 respiration driven by succinate at 100XCmax ([3]; 100XCmax): 0
State 4 respiration driven by glutamate/malate at 100XCmax ([3]; 100XCmax): 0
State 4 respiration driven by succinate at 100XCmax ([3]; 100XCmax): 0
RCC IV at 50XCmax (RCC IV): 0
MMP measured by Rhodamine 123 at 1XCmax ([4]; 1XCmax): 0
MMP measured by Rhodamine 123 at 2.5XCmax ([4]; 2.5XCmax): 0
MMP measured by Rhodamine 123 at 5XCmax ([4]; 5XCmax): 0
MMP measured by Rhodamine 123 at 10XCmax ([4]; 10XCmax): 0
MMP measured by Rhodamine 123 at 20XCmax ([4]; 20XCmax): 0
MMP measured by Rhodamine 123 at 30XCmax ([4]; 30XCmax): 0
MMP measured by Rhodamine 123 at 50XCmax ([4]; 50XCmax): 0
MMP measured by Rhodamine 123 at 100XCmax ([4]; 100XCmax): 0
RCC II at 1.0XCmax (RCC II; 1.0XCmax): 0
RCC II at 2.5XCmax (RCC II; 2.5XCmax): 0
RCC II at 5XCmax (RCC II; 5XCmax): 0
RCC II at 10XCmax (RCC II; 10XCmax): 0
RCC II at 20XCmax (RCC II; 20XCmax): 0
RCC II at 30XCmax (RCC II; 30XCmax): 0
RCC II at 50XCmax (RCC II; 50XCmax): 0
RCC II at 100XCmax (RCC II; 100XCmax): 0
RCC III at 100XCmax (RCC III): 0
Swelling 1XCmax ([5]; 1XCmax): 0
Swelling 2.5XCmax ([5]; 2.5XCmax): 0
Swelling 5XCmax ([5]; 5XCmax): 0
Swelling 10XCmax ([5]; 10XCmax): 0
Swelling 20XCmax ([5]; 20XCmax): 0
Swelling 30XCmax ([5]; 30XCmax): 0
Swelling 50XCmax ([5]; 50XCmax): 0
Swelling 100XCmax ([5]; 100XCmax): 0
RCC V at 5XCmax (RCC V; 5XCmax): 0
RCC V at 50XCmax (RCC V; 50XCmax): 0
RCC I at 10XCmax (RCC I): 0
